In patent US20160338989A1, “SOLID PHARMACEUTICAL COMPOSITIONS CONTAINING BENZOFURAN DERIVATIVES” (SANOFI, priority 1997, published 2016):
Structures can show the parent of a compound that is named as a salt.

Key:
[1] = Test of maintenance in solution at pH=6.7, active principle alone; format: physicochemical; conditions: absence of surfactant; pH 6.7, 2 hours at 37° C.
Description: Solutions were prepared containing 2 mg/ml of dronedarone. hydrochloride in hydrogenphosphate (NaH2PO4 buffered medium at pH=4.5 for 2 hours at 37° C. in the presence or absence of x % of nonionic hydrophilic surfactant to be studied, calculated on a weight basis relative to the active principle in base form.
This solution was then diluted to 1/10th in a neutral phosphate medium (Na2HPO4+NaH2PO4), the pH of the final solution being 6.7.
After 2 hours at 37° C., the solution was filtered through an Acrodisc brand 5 μm filter and the active principle in solution was assayed by UV spectrometry.

[2] = physchem; conditions: aqueous medium
[3] = Dissolution at pH=4 and dilution to 1/10 with buffer of pH=7; format: physicochemical
Description: Thus, it is possible to dissolve 400 mg of dronedarone hydrochloride in 200 ml of aqueous medium buffered to pH=4 (aqueous 0.1 M NaH2PO4 solution).
On the other hand, in this medium diluted to 1/10 with an aqueous solution buffered to pH=7 (aqueous 0.1 M Na2HPO4 solution), dronedarone hydro-chloride precipitates (pH of the final medium: 6.7).

[4] = Bioavailability after intake of food, dogs; format: in vivo; conditions: in particular fats
From the text: (§1) This behaviour in intestinal medium probably makes it possible to explain in vivo the low bio-availability of dronedarone hydrochloride and the differences observed after administration with or without food, since it has been observed that the bio-availability of dronedarone hydrochloride in dogs and in man is increased after the intake of food, in particular fats, which can greatly modify the precipitation kinetics of this active principle and also help to place it in emulsion form.

[5] = Bioavailability after intake of food, man; format: in vivo; conditions: in particular fats
From the text: as §1

[6] = Behaviour in the presence of bile salts; format: physicochemical; conditions: bile salts such as sodium taurocholate

- % of dronedarone hydrochloride in solution [1]: 5%
- solubility ([2]; aqueous buffer): 1 to 2 mg/mL
- solubility ([2]; pH 7, aqueous buffer): 0.01 mg/mL
- behaviour on dilution to 1/10 with aqueous solution buffered to pH=7 ([3]; 0.1 M Na2HPO4, pH of the final medium 6.7): precipitates
- amount that can be dissolved in 200 ml of aqueous medium ([3]; buffered to pH=4 (aqueous 0.1 M NaH2PO4 solution)): 400 mg
- bioavailability after the intake of food [4]: increased
- bioavailability after the intake of food [5]: increased
- behaviour in the presence of bile salts [6]: precipitates
Structure (SMILES): CCCCc1oc2ccc(NS(C)(=O)=O)cc2c1C(=O)c1ccc(OCCCN(CCCC)CCCC)cc1 [dronedarone hydrochloride, 2-n-butyl-3-[4-(3-di-n-butyl-aminopropoxy)benzoyl]-5-methylsul-phonamidobenzofuran]
